Assay results from the NIST ThermoML archive (doi:10.1021/je050460d).
± gives the expanded uncertainty stated by the source.

Assays:
[1] = xn = mol fraction of the nth substance listed; settings: 101 kPa, Liquid, x1 = 1; for viscosity: Capillary tube (Ostwald / Ubbelohde) method; for mass density: Vibrating tube method
[2] = 101.33 kPa, Liquid; for viscosity: Capillary tube (Ostwald / Ubbelohde) method; for mass density: Vibrating tube method
[3] = refractive index (Na D-line) (dimensionless); settings: 101.33 kPa, Liquid, Standard Abbe refractometry

O [water] + CCCCCCCC[n+]1ccn(C)c1.[Cl-]
viscosity ([1]; 298.15 K): 0.9 ± 0.01 mPa·s | viscosity ([1]; 313.15 K): 0.66 ± 0.01 mPa·s | viscosity ([1]; 328.15 K): 0.52 ± 0.01 mPa·s | mass density ([1]; 328.15 K): 985.68 ± 0.5 kg/m3 | viscosity ([1]; 343.15 K): 0.42 ± 0.01 mPa·s | mass density ([1]; 343.15 K): 977.75 ± 0.5 kg/m3

O [water] + CCCCCCn1cc[n+](C)c1.[Cl-]
viscosity ([1]; 298.15 K): 0.895 ± 0.007 mPa·s | viscosity ([1]; 313.15 K): 0.658 ± 0.006 mPa·s | viscosity ([1]; 328.15 K): 0.519 ± 0.005 mPa·s | mass density ([1]; 328.15 K): 985.68 ± 0.5 kg/m3 | viscosity ([1]; 343.15 K): 0.419 ± 0.004 mPa·s | mass density ([1]; 343.15 K): 977.75 ± 0.5 kg/m3

CCCCCCCC[n+]1ccn(C)c1.[Cl-] [1-methyl-3-octylimidazolium chloride]
viscosity ([2]; 298.15 K): 20883 ± 2800 mPa·s | mass density ([2]; 298.15 K): 1008.82 ± 2.7 kg/m3 | mass density ([2]; 303.15 K): 1005.94 ± 2.6 kg/m3 | mass density ([2]; 308.15 K): 1003.06 ± 2.6 kg/m3 | viscosity ([2]; 313.15 K): 4066 ± 400 mPa·s | mass density ([2]; 313.15 K): 1000.2 ± 2.6 kg/m3 | mass density ([2]; 318.15 K): 997.37 ± 2.6 kg/m3 | mass density ([2]; 323.15 K): 994.5 ± 2.6 kg/m3 | viscosity ([2]; 328.15 K): 1091 ± 78 mPa·s | mass density ([2]; 328.15 K): 991.67 ± 2.6 kg/m3 | mass density ([2]; 333.15 K): 988.85 ± 2.6 kg/m3 | mass density ([2]; 338.15 K): 986.04 ± 2.6 kg/m3 | viscosity ([2]; 343.15 K): 387.2 ± 20 mPa·s | mass density ([2]; 343.15 K): 983.24 ± 2.6 kg/m3 | refractive index ([3]; 298.15 K): 1.50987 ± 0.001 | refractive index ([3]; 303.15 K): 1.50838 ± 0.001 | refractive index ([3]; 308.15 K): 1.50689 ± 0.001 | refractive index ([3]; 313.15 K): 1.50543 ± 0.001 | refractive index ([3]; 318.15 K): 1.50396 ± 0.001 | refractive index ([3]; 323.15 K): 1.5025 ± 0.001 | refractive index ([3]; 328.15 K): 1.50103 ± 0.001 | refractive index ([3]; 333.15 K): 1.49956 ± 0.001 | refractive index ([3]; 338.15 K): 1.4981 ± 0.001 | refractive index ([3]; 343.15 K): 1.49664 ± 0.001

CCCCCCn1cc[n+](C)c1.[Cl-] [1-hexyl-3-methylimidazolium chloride]
viscosity ([2]; 298.15 K): 18089 ± 2400 mPa·s | mass density ([2]; 298.15 K): 1039.67 ± 2.7 kg/m3 | mass density ([2]; 303.15 K): 1036.81 ± 2.7 kg/m3 | mass density ([2]; 308.15 K): 1033.96 ± 2.7 kg/m3 | viscosity ([2]; 313.15 K): 3429 ± 330 mPa·s | mass density ([2]; 313.15 K): 1031.13 ± 2.7 kg/m3 | mass density ([2]; 318.15 K): 1028.3 ± 2.7 kg/m3 | mass density ([2]; 323.15 K): 1025.49 ± 2.7 kg/m3 | viscosity ([2]; 328.15 K): 942.1 ± 65 mPa·s | mass density ([2]; 328.15 K): 1022.69 ± 2.7 kg/m3 | mass density ([2]; 333.15 K): 1019.89 ± 2.7 kg/m3 | mass density ([2]; 338.15 K): 1017.11 ± 2.7 kg/m3 | viscosity ([2]; 343.15 K): 339.5 ± 17 mPa·s | mass density ([2]; 343.15 K): 1014.32 ± 2.7 kg/m3 | refractive index ([3]; 298.15 K): 1.5172 ± 0.001 | refractive index ([3]; 303.15 K): 1.5158 ± 0.001 | refractive index ([3]; 308.15 K): 1.51437 ± 0.001 | refractive index ([3]; 313.15 K): 1.51294 ± 0.001 | refractive index ([3]; 318.15 K): 1.51151 ± 0.001 | refractive index ([3]; 323.15 K): 1.51009 ± 0.001 | refractive index ([3]; 328.15 K): 1.50868 ± 0.001 | refractive index ([3]; 333.15 K): 1.50727 ± 0.001 | refractive index ([3]; 338.15 K): 1.50586 ± 0.001 | refractive index ([3]; 343.15 K): 1.50445 ± 0.001
